We go through 1 molecule from patent US11149277B2, “Method of producing enriched exosomes” (National Health Research Institutes, priority 2016, dated 2021).

For one experiment, the system named is MCF-7 cells. Kind of experiment: NTA and EV protein of CM-P4 fractions of MCF-7 cells. Format: cell-based, human. The following applies: increasing concentrations of GW. An excerpt:
(A) Quantification of EV/exosome release, shown as the number of particles in the CM-P4 fractions released per cell, from MCF-7 and MDA-MB-231 breast cancer cells treated with vehicle or with the indicated concentrations of GW627368X. Particles in the P4 fractions were counted using nanoparticle tracking analysis. Data are means±SEM (n=10). *P≤0.05, ***P≤0.001. (B) Quantification of the total EV protein released from MCF-7 and MDA-MB-231 cells treated with vehicle or with the indicated concentrations of GW627368X. The amounts (m) of protein present per cell in the conditioned medium P4 fractions are presented as means±SEM (n=3). *P≤0.05; (C) Protein levels in the P4 EV/exosome fractions and cell lysates, analyzed by Western blot. Culture media and cell lysates were collected from the same numbers of MCF-7 and MDA-MB-231 cells treated with vehicle or with GW627368X (GW), at the indicated concentrations, for 4 days. The P4 fractions of the culture media, containing EVs, were isolated. […]
We next examined whether blocking EP4-mediated signaling with an EP4 antagonist can elicit EV-mediated removal of CSC proteins (e.g., mesenchymal markers and stem cell markers) in the human breast carcinoma MCF-7 and MDA-MB-231 cell lines. P4 fractions from the conditioned media (CM-P4) of GW-treated MCF-7 and MDA-MB-231 cells were analyzed using NTA (FIG. 21, A). […]

Experiment [1] deals with NAMECs. Kind of experiment: Resistance of NAMECs to 0.05% trypsin (MET). It is filed as cell-based, human. The note with it: 4 days treatment. The protocol:
(§1) FIG. 3 includes a set of images and two graphs. (A) is a set of bright-field images of NAMECs treated with vehicle, GW627368X, Dynasore (1 μM), or GW627368X plus Dynasore (0.5, 1, 1.5 μM) for 4 days. Scale bar, 100 μm. (B) is a graph showing the percentage of NAMECs treated with vehicle, GW627368X, Dynasore (1 μM), or GW627368X plus Dynasore (0.75 and 1 μM) that were resistant to 0.05% trypsin. Data are means±SEM, (n=3). ***P≤0.001. (C) is a graph showing Boyden chamber migration of NAMECs treated with vehicle (Crl), GW627368X, Dynasore (1 μM), or GW627368X plus Dynasore (0.5, 0.75, 1 μM) for 4 days. Data are means±SEM (n=3). **P≤0.005. ***P≤0.001.

The subject of experiment [2] is NAMECs. Nature of the experiment: Boyden chamber migration of NAMECs. Format: cell-based, human. The note with it: GW pre-treatment, 4 days. The protocol: as §1
In experiment [3] the test system is NAMECs. Kind of experiment: NanoSight Nanoparticle Tracking Analysis of CM-P4 fractions of NAMEC culture. Format: cell-based, human. An excerpt:
FIG. 1 includes a TEM image and a graph. (A) is a TEM image of the P4 medium fraction of NAMECs treated with GW627368X (GW) for 4 days. Scale bar, 1 μm. (B) is a graph showing the number of particles in the CM-P4 fractions of NAMEC culture counted by using NanoSight Nanoparticle Tracking analysis. Top panel: Quantification of exosome release is shown as the ratio of [P4 GAPDH marker level]/[cell number]. Data are means±SEM (n=3). *P≤0.05. **P≤0.005. Bottom table: Quantification of exosome release is shown as the number of particles of the CM-P4 fractions released per cell measured by nanoparticle tracking analysis.
The isolated human mammary epithelial stem cells (NAMECs) were cultured in mammary epithelial cell basal medium (250 ml MCDB-170, 250 ml DMEM-F12, 1.2 g sodium bicarbonate, 2.5 μg EGF, 0.25 mg Hydrocortisone, 2.5 mg insulin, 35 mg BPE) with or without containing EP4 antagonist, i.e., GW627368X (GW) at 1 μg/ml, or AH23848 (AH) at 4 μg/ml, for 4 days. The culture medium was supplied with 0.5 μg/ml of GW or 2 μg/ml of AH23848 at the third day of the culturing period. For the induction of EP4 antagonist-induced exosomes from mouse mammary epithelial cells, cells were cultured in a medium containing 10 μg/ml of GW for 4 days.
The culture media were centrifuged at 300 g for 5 min to remove cells (P1), at 2,000 g for 20 min (P2), then at 10,000 g for 30 min (P3) all at 4° C. Dead cells and cell debris were removed at 300 g (P1) and 1200 g (P2). Finally, exosomes (P4) were separated from the supernatant by centrifugation at 110,000 g for 60 min. The P4 exosome pellet was washed once in PBS and then re-suspended in PBS for further application.

Another experiment relates to neural stem cells (NSCs). Kind of experiment: EV/exosome markers and SOX2 in neural stem cells. The following applies: GW for 4 days. It is filed as cell-based. An excerpt: FIG. 10 includes blots and a graph. (A) is a graph showing vesicle number analysis of GW-treated mesenchymal stem cells (MSCs) P4 fractions. The CM-P4 GW-treated MSCs were collected and subjected to NanoSight Nanoparticle Tracking Analysis (NTA). Quantification of EV/exosome release is shown as the ratio of [vesicle number]/[cell number]. Data are means±SEM (n=3). ***P≤0.001. (B) is a set of blots showing the protein contents measured in the EV/exosome fraction released by MSCs treated with vehicle DMSO (MSC) or EP4 antagonists (MSCGW). The culture media (D1-4: conditioned medium from day 1 to day 4; D5-8: conditioned medium from day 5 to day 8) were collected from MSCs treated with vehicle (MSC), or GW (MSCGW) for 8 days. (C) is a set of blots showing the protein contents measured in the EV/exosome fraction released by neural stem cells (NSCs) treated with vehicle DMSO or EP4 antagonists. The culture media were collected from […] treated with DMSO or GW for 4 days. EV/exosome protein released by the same number of NSCs was loaded in the Western blotting.
Isolated neural stem cells (NSCs) were cultured in NSC medium (225 ml low glucose DMEM, 225 ml F12, 50 ml vesicle-depleted Bovine serum) with or without an EP4 antagonist (GW at 20-30 μg/ml) for 4 days. The culture medium was supplied with 10-15 μg/ml of GW on the third day of the cultural period. […]

As for `CCOc1c2c(c(OCC)c3ccccc13)C(=O)N(c1ccc(CC(=O)NS(=O)(=O)c3ccccc3)cc1)C2` [GW627368X], in the experiment on MCF-7 cells, the “numbers of EVs released” value was “modestly increased”. Further, the “resistance to disassociation by 0.05% trypsin” value with NAMECs [1] is on record as “more resistant”. Moreover, in the experiment with NAMECs [2], the “decrease of number of migrating cells” value is reported as ~60%. Further, the “concentration of released membrane vesicles” value in the experiment on NAMECs [3] (CM-P4 fraction, 4 days, PGE2 1 μM) is listed as ~5.4×10^4 particle/cell. In the experiment on NAMECs [3] (particle numbers in CM-P4), the “release of membrane vesicles compared to untreated and PGE2-treated NAMECs” value is given as “significantly triggered the release of membrane vesicles”. For the same molecule, in the experiment on neural stem cells (NSCs), the “content of exosomal markers CD81 and GAPDH in NSC culture” value was “increased”; the “expression level of NSC marker SOX2 vs non-treated NSCs” value is on record as “much lower”.
